Measurements published in patent publication US20060251574A1, “Cytotoxins and diagnostic imaging agents comprising hsp90 ligands” (priority 2002, published 2006).

System: HSP90
Procedure: Purified native HSP90 protein (Stressgen) or cell lysates prepared in lysis buffer (20 mM Hepes, pH 7.3, 1 mM EDTA, 5 mM MgCl2, 100 mM KCl) were incubated in the absence or presence of CF7 (17-AAG) or test compound for 15 min at 4° C. […] BioMag™ streptavidin magnetic beads were then added to the mixture, and the reaction was incubated by rotating for another 1 hr at 4° C. Tubes were placed on a magnetic rack, and the unbound supernatant removed. The magnetic beads were washed three times in lysis buffer, and the washes discarded. SDS-PAGE sample buffer was added to the beads and boiled for 5 min at 95° C. Samples were analyzed on 10% SDS protein gels (Novex), and then Western blots using anti-HSP90 monoclonal antibody (Stressgen SPA-830). The bands in the Western Blots were quantitated using the Bio-rad Fluor-S Imager, and the % inhibition of binding of CF7 or test compound calculated. The IC50 reported is the concentration of the compound needed to cause half-maximal inhibition of binding. For experiments that utilized shocked HSP90, the purified HSP90 native protein was incubated for 15 min at 90° C. For experiments that utilized bis-ANS treated HSP90, the purified HSP90 protein was incubated with bis-ANS (Molecular Probes) for 30 min at 37° C.

For 17-allylamino-geldanamycin [17-AAG], the “apparent binding affinity for HSP90, tumor cells versus normal cells or purified HSP90 (FIG. 4)” value (BT474 lysate vs fibroblasts, RPTEC, purified HSP90) was “higher apparent binding affinity for HSP90 from tumor cells (BT474) than normal cells (fibroblasts, RPTEC) or purified HSP90 alone” and the “apparent binding affinity for HSP90, high Her2 expressing cells versus normal cells, heat-shocked or bis-ANS treated HSP90 (FIG. 5)” value (SKOY-3, SKBR-3, N87 lysates) was “higher apparent binding affinity for HSP90 from the specific high Her2 expressing cells, SKOY-3, SKBR-3, and N87, than from normal cells, heat-shocked HSP90, or bis-ANS treated HSP90”.
